Source: ChEMBL document CHEMBL3301555, “MMV Malaria Box screening in pLDH viability assay against Plasmodium falciparum gametocytes”

Tests used:
[1] = test system: Plasmodium falciparum; experiment: (§1) MMV: Measure of pLDH activity as indication of parasite viability. Gametocytogenesis of 3D7 Plasmodium falciparum strain was induced in vitro and asexual parasites were depleted with N-acetylglucosamine. Gametocytes were treated with dihydroartemisinin, epoxomicin, methylene blue, primaquine, puromycin or chloroquine in 96-well plates and the pLDH activity was evaluated using a modified Makler protocol. Mosquito infectivity was measured by the standard membrane feeding assay.; format: functional; design: concentration or dose not given beside the values
[2] = test system: Plasmodium falciparum; experiment: as §1, with “assay. The IC50 value was extrapolated as the concentration that induced a 50% inhibition of gametocyte viability.” for “assay.”; format: functional, organism-based

Compound	Growth Inhibition [1]	IC50 [2]
COc1ccc(-c2cc3c(nn2)-c2ccccc2C3=O)cc1	49.5345%	5.01 µM
COc1ccc(C2c3ccc4ccccc4c3Oc3ncn(CCCN(C)C)c(=N)c32)cc1 (configuration not stated)	88.163%	0.696 µM
CC(C)(C)CC(C)(C)NCC(O)COc1ccc(Cl)cc1Cl (configuration not stated)	54.9615%	5.62 µM
Cc1cccc(-n2ncc3c(O)nc(-n4nc(C)cc4NC(=O)c4cc5ccccc5o4)nc32)c1	60.253%	1.62 µM
COC(=O)c1ccc(C2C3=C(O)CC(c4ccc(F)cc4)CC3=Nc3ccccc3N2C(=O)c2ccccc2)cc1 (configuration not stated)	56.5126%	6.52 µM
CN(C)CCCNCc1ccc(-c2ccc(F)c(Cl)c2)o1.Cl	63.9166%	2.21 µM
Cc1sc2ncnc(Sc3nc4ccccc4[nH]3)c2c1C	79.0368%	2.64 µM
COc1ccc(C(=O)NC(c2ccc(Cl)cc2Cl)c2cc(Cl)c3cccnc3c2O)cc1 (configuration not stated)	50.4754%	3.81 µM
CCOc1ccc(CN2CCN(CC(O)COc3ccc(OCC(O)CN4CCN(Cc5ccc(OCC)cc5)CC4)cc3)CC2)cc1 (configuration not stated)	89.2205%	1.34 µM
Cl.c1ccc2c(NCCCCCCNc3c4c(nc5ccccc35)CCCC4)c3c(nc2c1)CCCC3	77.595%	2.39 µM
CCN(CC)CCn1c(=N)n(CC(O)c2ccc(Cl)c(Cl)c2)c2ccccc21.Cl (configuration not stated)	75.2902%	2.08 µM
O=C(NCCCN1CCC(N2CCCCC2)CC1)C1=Cc2cc(Br)ccc2OC1	57.2548%	1.44 µM
O=C(NC1CCN(Cc2ccccc2)CC1)c1cc(C(=O)NC2CCN(Cc3ccccc3)CC2)cc(C(=O)NC2CCN(Cc3ccccc3)CC2)c1	82.7495%	0.288 µM
COc1ccc(C2NCCc3c2[nH]c2ccccc32)cc1CN1CCN(c2ccc(F)cc2)CC1.Cl (configuration not stated)	75.07%	3.41 µM
Cl.Clc1cc(Br)ccc1-c1ccc(CNCC2CCNCC2)o1	86.2708%	0.407 µM
Cc1ccc2cc3c(N)c4c(C)ccc(C)c4nc3nc2c1	80.372%	2.72 µM

Compound	Growth Inhibition [1]	IC50 [2]
COc1ccc(C(=O)C(CCC(CNC(C)(C)C)C(=O)c2ccc(OC)cc2)CNC(C)(C)C)cc1 (configuration not stated)	56.45%	3.22 µM
CC(C)CCNCC(O)Cn1c2ccccc2c2ccccc21.Cl (configuration not stated)	62.6796%	2.83 µM
COc1cc(C(=O)ON=C(N)Cc2cccc3ccccc23)cc(OC)c1OC	60.0732%	4.04 µM
Oc1c(C(Nc2ccccn2)c2cccc(Oc3ccccc3)c2)ccc2cccnc12 (configuration not stated)	50.44%	3.89 µM
OC(CNC1CCCCC1)Cn1c2ccc(I)cc2c2cc(I)ccc21 (configuration not stated)	78.0014%	0.758 µM
Cc1cc(C)c2nc(N3CCC(C(=O)NCCCN4CCC(N5CCCCC5)CC4)CC3)sc2c1	59.2216%	1.93 µM
COc1cccc(C(=O)NC(c2ccc(C)cc2)c2cc(Cl)c3cccnc3c2O)c1 (configuration not stated)	50.8652%	3.09 µM
CC(C)OCc1cc(CN2CCN(c3cccc(Cl)c3)CC2)c(O)c2ncccc12	56.857%	3.28 µM
CCCOCc1cc(CN2CCN(c3cccc(Cl)c3)CC2)c(O)c2ncccc12	80.5%	3.8 µM
Oc1c(CN2CCN(c3ccccc3F)CC2)cc(Br)c2cccnc12	75.8386%	1.9 µM
CCCc1c(C)nc2ccc(Br)cc2c1O	51.0245%	8.9 µM
CC1=C(CC(=O)c2cccc([N+](=O)[O-])c2)C(=O)c2ccccc2C1=O	70.075%	0.902 µM
CC1CC2=C(CC1CNCCCN(C)C)C(C)(C)CCC2 (configuration not stated)	91.9455%	0.576 µM
CN(C)c1ccc(N=Cc2ccc(N3CCOCC3)cc2)cc1	78.9978%	4.16 µM
CN(C)c1ccc(C(O)(c2ccc(N(C)C)cc2)c2ccc(N(C)C)cc2)cc1 [METHYLROSANILINE]	76.3425%	0.158 µM
